# From patent US11911386B2, “Methods of treating B-cell proliferative disorder” (BeiGene Switzerland GmbH, priority 2022, dated 2024)
# Where “and” joins values, the source holds several entries; their conditions need not be identical. Identical values can stand only once. Like-named read-outs stand apart in the source and are kept apart here.
smiles,measurement,setting,value
"C=CC(=O)N1CCC([C@@H]2CCNc3c(C(N)=O)c(-c4ccc(Oc5ccccc5)cc4)nn32)CC1 [zanubrutinib, (S)-7-(1-acryloylpiperidin-4-yl)-2-(4-phenoxyphenyl)-4,5,6,7-tetrahydropyrazolo[1,5-a]pyrimidine-3-carboxamide]","Opportunistic infection AESI, EAIR",During Coadministration,0.67 per 100 person-months
same,"Opportunistic infection AESI, patients",During Coadministration,2.9%
same,"Opportunistic infection SAEs, EAIR",During Coadministration,0.50 per 100 person-months
same,Patients with at least 1 AESI,During Coadministration,67 (48.6) n (%)
same,Petechiae (hemorrhage AESI),During Coadministration,0.7%
same,Platelet count decreased PT,During Coadministration,2.2%
same,Platelet count decreased ≥Grade 3,During Coadministration,1.4%
same,Purpura (hemorrhage AESI),During Coadministration,0.0%
same,"SAEs of opportunistic infections, patients",During Coadministration,2.2% and 2.9%
same,Second primary malignancies AESI leading to dose interruption,During Coadministration,1.4%
same,"Second primary malignancies AESI ≥Grade 3, EAIR",During Coadministration,0.33 per 100 person-months
same,"Second primary malignancies AESI ≥Grade 3, patients",During Coadministration,1.4%
same,"Second primary malignancies AESI, EAIR",During Coadministration,0.72 per 100 person-months
same,"Second primary malignancies AESI, patients",During Coadministration,2.9%
same,Sepsis,During Coadministration,2.2%
same,Serious AESI,During Coadministration,29 (21.0) n (%)
same,"Serious atrial fibrillation and flutter AESI, EAIR",During Coadministration,0.0 per 100 person-months
same,"Serious atrial fibrillation and flutter AESI, patients",During Coadministration,0.0%
same,Serious external ear neoplasm malignant,During Coadministration,1 (0.7%) n (%)
same,Serious haematuria,During Coadministration,0 (0.0%) n (%)
same,Serious haematuria (major hemorrhage),During Coadministration,0 (0.0%) n (%)
same,"Serious hemorrhage AESI, EAIR",During Coadministration,0.0 per 100 person-months
same,"Serious hemorrhage AESI, patients",During Coadministration,0.0%
same,"Serious hypertension AESI, EAIR",During Coadministration,0.16 per 100 person-months
same,"Serious infection AESI, EAIR",During Coadministration,6.16 per 100 person-months
same,"Serious major hemorrhage AESI, EAIR",During Coadministration,0.0 per 100 person-months
same,"Serious major hemorrhage AESI, patients",During Coadministration,0.0%
same,"Serious neutropenia AESI, EAIR",During Coadministration,1.11 per 100 person-months
same,"Serious neutropenia AESI, patients",During Coadministration,4.3%
same,Serious neutropenic sepsis,During Coadministration,0%
same,Serious neutrophil count decreased,During Coadministration,0.7%
same,"Serious second primary malignancies AESI, EAIR",During Coadministration,0.33 per 100 person-months
same,"Serious second primary malignancies AESI, patients",During Coadministration,1.4%
same,Serious squamous cell carcinoma of skin,During Coadministration,0 (0.0%) n (%)
same,Sinusitis,During Coadministration,2.9%
same,"Skin cancer AESI ≥Grade 3, EAIR",During Coadministration,0.00 per 100 person-months
same,"Skin cancer AESI, EAIR",During Coadministration,0.17 per 100 person-months
same,"Skin cancer AESI, patients",During Coadministration,0.7%
same,"Skin cancer SAE, EAIR",During Coadministration,0.00 per 100 person-months
same,Squamous cell carcinoma of skin,During Coadministration,0.7%
same,Squamous cell carcinoma of skin ≥Grade 3,During Coadministration,0 (0.0%) n (%)
same,Thrombocytopenia AESI leading to dose interruption,During Coadministration,1.4%
same,"Thrombocytopenia AESI ≥Grade 3, EAIR",During Coadministration,0.83 per 100 person-months
same,"Thrombocytopenia AESI ≥Grade 3, patients",During Coadministration,3.6%
same,"Thrombocytopenia AESI, EAIR",During Coadministration,1.52 per 100 person-months
same,"Thrombocytopenia AESI, patients",During Coadministration,6.5%
same,Thrombocytopenia PT,During Coadministration,4.3%
same,Viral upper respiratory tract infection,During Coadministration,2.2%
same,"Anemia AESI ≥Grade 3, EAIR",Prior to Coadministration,0.54 per 100 person-months
same,"Anemia AESI, EAIR",Prior to Coadministration,1.07 per 100 person-months
same,Atrial fibrillation PT,Prior to Coadministration,1.7%
same,"Atrial fibrillation and flutter AESI Grade ≥3, EAIR",Prior to Coadministration,0.13 per 100 person-months
same,"Atrial fibrillation and flutter AESI Grade ≥3, patients",Prior to Coadministration,1.7%
same,"Atrial fibrillation and flutter AESI, EAIR",Prior to Coadministration,0.13 per 100 person-months
same,"Atrial fibrillation and flutter AESI, patients",Prior to Coadministration,1.7%
same,Atrial flutter PT,Prior to Coadministration,0.0%
same,Basal cell carcinoma,Prior to Coadministration,4.2%
same,Basal cell carcinoma leading to dose interruption,Prior to Coadministration,2 (1.7%) n (%)
same,Basal cell carcinoma ≥Grade 3,Prior to Coadministration,2 (1.7%) n (%)
same,Bronchopulmonary aspergillosis,Prior to Coadministration,3 (2.5%) n (%)
same,External ear neoplasm malignant leading to dose interruption,Prior to Coadministration,2 (1.7%) n (%)
same,Febrile neutropenia PT,Prior to Coadministration,1.7%
same,Grade 3 or higher AESI,Prior to Coadministration,69 (58.0) n (%)
same,Haematuria (hemorrhage AESI),Prior to Coadministration,8.4%
same,Haematuria (major hemorrhage),Prior to Coadministration,2 (1.7%) n (%)
same,Haematuria (major hemorrhage) ≥Grade 3,Prior to Coadministration,2 (1.7%) n (%)
same,Haematuria leading to dose interruption,Prior to Coadministration,2 (1.7%) n (%)
same,Haematuria ≥Grade 3,Prior to Coadministration,2 (1.7%) n (%)
same,Hemorrhage AESI leading to dose interruption,Prior to Coadministration,3.4%
same,Hemorrhage AESI leading to dose reduction,Prior to Coadministration,1.7%
same,"Hemorrhage AESI ≥Grade 3, EAIR",Prior to Coadministration,0.19 per 100 person-months
same,"Hemorrhage AESI ≥Grade 3, patients",Prior to Coadministration,2.5%
same,"Hemorrhage AESI, EAIR",Prior to Coadministration,9.70 per 100 person-months
same,"Hemorrhage AESI, patients",Prior to Coadministration,55.5%
same,Hepatitis B reactivation AESI,Prior to Coadministration,2.5%
same,Hepatitis B reactivation AESI ≥Grade 3,Prior to Coadministration,2 (1.7%) n (%)
same,"Hypertension AESI ≥Grade 3, EAIR",Prior to Coadministration,0.56 per 100 person-months
same,"Hypertension AESI ≥Grade 3, patients",Prior to Coadministration,6.7%
same,"Hypertension AESI, EAIR",Prior to Coadministration,1.13 per 100 person-months
same,"Hypertension AESI, patients",Prior to Coadministration,12.6%
same,Infection AESI leading to death,Prior to Coadministration,0.8%
same,Infection AESI leading to dose reduction,Prior to Coadministration,7.6%
same,Infection AESI leading to treatment discontinuation,Prior to Coadministration,1.7%
same,"Infection AESI ≥Grade 3, EAIR",Prior to Coadministration,3.82 per 100 person-months
same,"Infection AESI, EAIR",Prior to Coadministration,18.08 per 100 person-months
same,Major hemorrhage AESI leading to dose interruption,Prior to Coadministration,1.7%
same,"Major hemorrhage AESI ≥Grade 3, EAIR",Prior to Coadministration,0.19 per 100 person-months
same,"Major hemorrhage AESI ≥Grade 3, patients",Prior to Coadministration,2.5%
same,"Major hemorrhage AESI, EAIR",Prior to Coadministration,0.25 per 100 person-months
same,"Major hemorrhage AESI, patients",Prior to Coadministration,3.4%
same,Malignant melanoma,Prior to Coadministration,2 (1.7%) n (%)
same,Meningitis cryptococcal,Prior to Coadministration,2 (1.7%) n (%)
same,Neutropenia AESI leading to dose reduction,Prior to Coadministration,2.5%
same,Neutropenia AESI leading to treatment interruption,Prior to Coadministration,7.6%
same,"Neutropenia AESI ≥Grade 3, EAIR",Prior to Coadministration,1.74 per 100 person-months
same,"Neutropenia AESI ≥Grade 3, patients",Prior to Coadministration,20.2%
same,"Neutropenia AESI, EAIR",Prior to Coadministration,2.72 per 100 person-months
same,"Neutropenia AESI, patients",Prior to Coadministration,28.6%
same,Neutropenic sepsis PT,Prior to Coadministration,0.8%
same,Neutropenic sepsis ≥Grade 3,Prior to Coadministration,0.8%
same,Neutrophil count decreased leading to dose reduction,Prior to Coadministration,0.8%
same,Opportunistic infection AESI leading to dose reduction,Prior to Coadministration,3.4%
same,Opportunistic infection AESI leading to treatment discontinuation,Prior to Coadministration,0.8%
same,"Opportunistic infection AESI ≥Grade 3, EAIR",Prior to Coadministration,0.38 per 100 person-months
same,"Opportunistic infection AESI ≥Grade 3, patients",Prior to Coadministration,6 (5.0%) n (%)
same,"Opportunistic infection AESI, EAIR",Prior to Coadministration,0.64 per 100 person-months
same,"Opportunistic infection AESI, patients",Prior to Coadministration,8.4%
same,"Opportunistic infection SAEs, EAIR",Prior to Coadministration,0.38 per 100 person-months
same,Patients with at least 1 AESI,Prior to Coadministration,115 (96.6) n (%)
same,Petechiae (hemorrhage AESI),Prior to Coadministration,5.9%
same,Platelet count decreased PT,Prior to Coadministration,3.4%
same,Platelet count decreased ≥Grade 3,Prior to Coadministration,0.8%
same,Purpura (hemorrhage AESI),Prior to Coadministration,5.9%
same,"SAEs of opportunistic infections, patients",Prior to Coadministration,5.0% and 8.4%
same,Second primary malignancies AESI leading to dose interruption,Prior to Coadministration,4.2%
same,"Second primary malignancies AESI ≥Grade 3, EAIR",Prior to Coadministration,0.32 per 100 person-months
same,"Second primary malignancies AESI ≥Grade 3, patients",Prior to Coadministration,4.2%
same,"Second primary malignancies AESI, EAIR",Prior to Coadministration,1.05 per 100 person-months
same,"Second primary malignancies AESI, patients",Prior to Coadministration,12.6%
same,Serious AESI,Prior to Coadministration,53 (44.5) n (%)
same,"Serious anemia AESI, EAIR",Prior to Coadministration,0.06 per 100 person-months
same,"Serious atrial fibrillation and flutter AESI, EAIR",Prior to Coadministration,0.06 per 100 person-months
same,"Serious atrial fibrillation and flutter AESI, patients",Prior to Coadministration,0.8%
same,Serious external ear neoplasm malignant,Prior to Coadministration,2 (1.7%) n (%)
same,Serious haematuria,Prior to Coadministration,2 (1.7%) n (%)
same,Serious haematuria (major hemorrhage),Prior to Coadministration,2 (1.7%) n (%)
same,"Serious hemorrhage AESI, EAIR",Prior to Coadministration,0.25 per 100 person-months
same,"Serious hemorrhage AESI, patients",Prior to Coadministration,3.4%
same,"Serious infection AESI, EAIR",Prior to Coadministration,3.31 per 100 person-months
same,"Serious major hemorrhage AESI, EAIR",Prior to Coadministration,0.25 per 100 person-months
same,"Serious major hemorrhage AESI, patients",Prior to Coadministration,3.4%
same,"Serious neutropenia AESI, EAIR",Prior to Coadministration,0.26 per 100 person-months
same,"Serious neutropenia AESI, patients",Prior to Coadministration,3.4%
same,Serious neutropenic sepsis,Prior to Coadministration,0.8%
same,Serious neutrophil count decreased,Prior to Coadministration,0.0%
same,"Serious second primary malignancies AESI, EAIR",Prior to Coadministration,0.39 per 100 person-months
same,"Serious second primary malignancies AESI, patients",Prior to Coadministration,5.0%
same,Serious squamous cell carcinoma of skin,Prior to Coadministration,2 (1.7%) n (%)
same,"Skin cancer AESI ≥Grade 3, EAIR",Prior to Coadministration,0.26 per 100 person-months
same,"Skin cancer AESI, EAIR",Prior to Coadministration,0.69 per 100 person-months
same,"Skin cancer AESI, patients",Prior to Coadministration,8.4%
same,"Skin cancer SAE, EAIR",Prior to Coadministration,0.26 per 100 person-months
same,Squamous cell carcinoma of skin,Prior to Coadministration,5.0%
same,Squamous cell carcinoma of skin ≥Grade 3,Prior to Coadministration,2 (1.7%) n (%)
same,Thrombocytopenia AESI leading to dose interruption,Prior to Coadministration,0.8%
same,"Thrombocytopenia AESI ≥Grade 3, EAIR",Prior to Coadministration,0.26 per 100 person-months
same,"Thrombocytopenia AESI ≥Grade 3, patients",Prior to Coadministration,3.4%
same,"Thrombocytopenia AESI, EAIR",Prior to Coadministration,0.79 per 100 person-months
same,"Thrombocytopenia AESI, patients",Prior to Coadministration,9.2%
same,Thrombocytopenia PT,Prior to Coadministration,6.7%
same,Tumor lysis syndrome AESI,all study periods,No AESI of tumor lysis syndrome were reported
